# Read-outs that look alike come from different tables or passages of the source.
# Columns and labels:
# Assay type in all cases: cell-based
# A-549 = experiment: SRB colorimetric cell growth inhibition assay, A-549; settings: for GI50: GI=growth inhibition, read-out: GI50 A-549
# Excerpt: (§1) The finality of these assays is to interrupt the growth of an “in vitro” tumor cell culture by means a continued exhibition of the cells to the sample to be testing.
# (§2) A colorimetric type of assay, using sulforhodamine B (SRB) reaction has been adapted for a quantitative measurement of cell growth and viability (following the technique described by P. A. Skehan, et al., J. Natl. Cancer Inst. 1990, 82, 1107-1112).
# (§3) This form of assay employs 96 well cell culture microplates of 9 mm diameter (T. Mosmann et al., J. of Immunological Methods 1983, 65, 55-63; G. T. Faircloth et al., J. of Tissue and Culture Methods 1988, 11, 201-205).
# (§4) Most of the cell lines are obtained from American Type Culture Collection (ATCC) derived from different human cancer types.
# (§5) The values for mean +/− SD of data from triplicate wells are calculated. Some parameters for cellular responses can be calculated: GI=growth inhibition, TGI=total growth inhibition (cytostatic effect) and LC=cell killing (cytotoxic effect).
# SK-MEL-28 = experiment: SRB colorimetric cell growth inhibition assay, SK-MEL-28; settings: for GI50: GI=growth inhibition, read-out: GI50 MEL-28; for CC50: cell killing (cytotoxic effect), read-out: LC50 MEL-28
# Excerpt: as §1, §2, §3, §4, §5
# HT-29 = experiment: SRB colorimetric cell growth inhibition assay, HT-29; settings: for GI50: GI=growth inhibition, read-out: GI50 HT-29
# Excerpt: as §1, §2, §3, §4, §5
# LoVo = experiment: SRB colorimetric cell growth inhibition assay, LoVo; settings: for GI50: GI=growth inhibition, read-out: GI50 LOVO
# Excerpt: as §1, §2, §3, §4, §5
# LoVo-Dox = experiment: SRB colorimetric cell growth inhibition assay, LoVo-Dox (MDR); settings: LOVO-DOX; for GI50: GI=growth inhibition, read-out: GI50 LOVO-DOX
# Excerpt: as §1, §2, §3, §4, §5
# DU-145 = experiment: SRB colorimetric cell growth inhibition assay, DU-145; settings: for GI50: GI=growth inhibition, read-out: GI50 DU-145; for CC50: cell killing (cytotoxic effect), read-out: LC50 DU-145
# Excerpt: as §1, §2, §3, §4, §5
# SK-BR-3 = experiment: SRB colorimetric cell growth inhibition assay, SK-BR-3; settings: for GI50: GI=growth inhibition, read-out: GI50 SK-BR-3; for CC50: cell killing (cytotoxic effect), read-out: LC50 SK-BR-3
# Excerpt: as §1, §2, §3, §4, §5
# IGROV = experiment: SRB colorimetric cell growth inhibition assay, IGROV; settings: IGROV; for GI50: GI=growth inhibition, read-out: GI50 IGROV; for CC50: cell killing (cytotoxic effect), read-out: LC50 IGROV
# Excerpt: as §1, §2, §3, §4, §5
# IGROV-ET = experiment: SRB colorimetric cell growth inhibition assay, IGROV-ET (ET-743 resistant); settings: IGROV-ET; for GI50: GI=growth inhibition, read-out: GI50 IGROV-ET; for CC50: cell killing (cytotoxic effect), read-out: LC50 IGROV-ET
# Excerpt: as §1, §2, §3, §4, §5
# HeLa = experiment: SRB colorimetric cell growth inhibition assay, HeLa; settings: Homo sapiens, HeLa; for GI50: GI=growth inhibition, read-out: GI50 HELA; for CC50: cell killing (cytotoxic effect), read-out: LC50 HELA; for IC (TGI): total growth inhibition (cytostatic effect), read-out: TGI HELA
# Excerpt: as §1, §2, §3, §4, §5
# HeLa-APL = experiment: SRB colorimetric cell growth inhibition assay, HeLa-APL (aplidine resistant); settings: Homo sapiens, HELA-APL; for GI50: GI=growth inhibition, read-out: GI50 HELA-APL; for CC50: cell killing (cytotoxic effect), read-out: LC50 HELA-APL; for IC (TGI): total growth inhibition (cytostatic effect), read-out: TGI HELA-APL
# Excerpt: as §1, §2, §3, §4, §5
# PANC-1 = experiment: SRB colorimetric cell growth inhibition assay, PANC-1; settings: for GI50: GI=growth inhibition, read-out: GI50 PANC-1
# Excerpt: as §1, §2, §3, §4, §5
# [1] = total growth inhibition (cytostatic effect)
# [2] = Homo sapiens, SK-MEL-28, MEL-28
smiles,measurement,setting,value
COc1cc2ccn3c(c(-c4ccc(OC(=O)[C@@H](N)C(C)C)c(OC)c4)c4c5cc(OC)c(OC(=O)[C@@H](N)C(C)C)cc5oc(=O)c43)c2cc1OC [Compound 14],GI50,A-549; A-549,555 nM
same,TGI A-549,"A-549; A-549, total growth inhibition (cytostatic effect)",1.40E−05 Molar
same,GI50,SK-MEL-28; MEL-28,1420 nM
same,CC50,SK-MEL-28; MEL-28,14 µM
same,TGI MEL-28,"SK-MEL-28; MEL-28, total growth inhibition (cytostatic effect)",1.40E−05 Molar
same,GI50,HT-29; HT-29,2.47 µM
same,TGI HT-29,"HT-29; HT-29, total growth inhibition (cytostatic effect)",7.26E−06 Molar
same,GI50,LoVo; LOVO,597 nM
same,TGI LOVO,"LoVo; LOVO, total growth inhibition (cytostatic effect)",2.47E−06 Molar
same,GI50,LoVo-Dox,497 nM
same,TGI LOVO-DOX,LoVo-Dox; [1],1.45E−06 Molar
same,GI50,DU-145; DU-145,517 nM
same,CC50,DU-145; DU-145,14 µM
same,TGI DU-145,"DU-145; DU-145, total growth inhibition (cytostatic effect)",2.19E−06 Molar
same,GI50,SK-BR-3; SK-BR-3,42.4 nM
same,CC50,SK-BR-3; SK-BR-3,14 µM
same,TGI SK-BR-3,"SK-BR-3; SK-BR-3, total growth inhibition (cytostatic effect)",9.88E−08 Molar
same,GI50,IGROV,490 nM
same,CC50,IGROV,14 µM
same,TGI IGROV,IGROV; [1],2.44E−06 Molar
same,GI50,IGROV-ET,745 nM
same,CC50,IGROV-ET,14 µM
same,TGI IGROV-ET,IGROV-ET; [1],4.97E−06 Molar
same,GI50,HeLa,1830 nM
same,CC50,HeLa,12.4 µM
same,IC (TGI),HeLa,9.63 µM
same,GI50,HeLa-APL,2600 nM
same,CC50,HeLa-APL,12.4 µM
same,IC (TGI),HeLa-APL,12.1 µM
same,GI50,PANC-1; PANC-1,1180 nM
same,TGI PANC-1,"PANC-1; PANC-1, total growth inhibition (cytostatic effect)",1.40E−05 Molar
COc1cc2ccn3c(c(-c4ccc(OC(=O)[C@H](C)N)c(OC)c4)c4c5cc(OC)c(OC(=O)[C@H](C)N)cc5oc(=O)c43)c2cc1OC [Compound 20],GI50,"A-549; Homo sapiens, A549, A-549",589 nM
same,CC50,"A-549; Homo sapiens, A549, A-549, cell killing (cytotoxic effect), read-out: LC50 A-549",15.3 µM
same,IC (TGI),"A-549; Homo sapiens, A549, A-549, total growth inhibition (cytostatic effect), read-out: TGI A-549",15.3 µM
same,GI50,SK-MEL-28; [2],2240 nM
same,CC50,SK-MEL-28; [2],15.3 µM
same,IC (TGI),"SK-MEL-28; Homo sapiens, SK-MEL-28, MEL-28, total growth inhibition (cytostatic effect), read-out: TGI MEL-28",15.3 µM
same,GI50,"HT-29; Homo sapiens, HT-29, HT-29",3.58 µM
same,CC50,"HT-29; Homo sapiens, HT-29, HT-29, cell killing (cytotoxic effect), read-out: LC50 HT-29",15.3 µM
same,IC (TGI),"HT-29; Homo sapiens, HT-29, HT-29, total growth inhibition (cytostatic effect), read-out: TGI HT-29",15.3 µM
same,GI50,"LoVo; Homo sapiens, LoVo",436 nM
same,CC50,"LoVo; Homo sapiens, LoVo, cell killing (cytotoxic effect), read-out: LC50 LOVO",15.3 µM
same,IC (TGI),"LoVo; Homo sapiens, LoVo, total growth inhibition (cytostatic effect), read-out: TGI LOVO",8.83 µM
same,GI50,LoVo-Dox; Homo sapiens,525 nM
same,CC50,"LoVo-Dox; Homo sapiens, cell killing (cytotoxic effect), read-out: LC50 LOVO-DOX",15.3 µM
same,IC (TGI),"LoVo-Dox; Homo sapiens, total growth inhibition (cytostatic effect), read-out: TGI LOVO-DOX",2.06 µM
same,GI50,"DU-145; Homo sapiens, DU-145, DU-145",500 nM
same,CC50,"DU-145; Homo sapiens, DU-145, DU-145",15.3 µM
same,IC (TGI),"DU-145; Homo sapiens, DU-145, DU-145, total growth inhibition (cytostatic effect), read-out: TGI DU-145",2.36 µM
same,GI50,"SK-BR-3; Homo sapiens, SK-BR-3, SK-BR-3",54.8 nM
same,CC50,"SK-BR-3; Homo sapiens, SK-BR-3, SK-BR-3",15.3 µM
same,IC (TGI),"SK-BR-3; Homo sapiens, SK-BR-3, SK-BR-3, total growth inhibition (cytostatic effect), read-out: TGI SK-BR-3",0.238 µM
same,GI50,IGROV; Homo sapiens,516 nM
same,CC50,IGROV; Homo sapiens,15.3 µM
same,IC (TGI),"IGROV; Homo sapiens, total growth inhibition (cytostatic effect), read-out: TGI IGROV",7.46 µM
same,GI50,IGROV-ET; Homo sapiens,593 nM
same,CC50,IGROV-ET; Homo sapiens,15.3 µM
same,IC (TGI),"IGROV-ET; Homo sapiens, total growth inhibition (cytostatic effect), read-out: TGI IGROV-ET",15.3 µM
same,GI50,HeLa,1170 nM
same,CC50,HeLa,15.3 µM
same,IC (TGI),HeLa,15.3 µM
same,GI50,HeLa-APL,2090 nM
same,CC50,HeLa-APL,15.3 µM
same,IC (TGI),HeLa-APL,15.3 µM
same,GI50,"PANC-1; Homo sapiens, PANC-1, PANC-1",1240 nM
same,CC50,"PANC-1; Homo sapiens, PANC-1, PANC-1, cell killing (cytotoxic effect), read-out: LC50 PANC-1",15.3 µM
same,IC (TGI),"PANC-1; Homo sapiens, PANC-1, PANC-1, total growth inhibition (cytostatic effect), read-out: TGI PANC-1",15.3 µM
